Assay results reported in patent US9598448B2, “Osmium (II) arene imino anti-cancer complexes” (University of Warwick, priority 2010, dated 2017).

What was measured:
[1] = tested on: A2780/cis ovarian (cisplatin-resistant); test: MTT growth inhibition assay, A2780/cis; format: cell-based, human; conditions: 96 h
Method: (§1) Tumor cell growth inhibition was assessed using the MTT assay.^13 2×10^3 cells were inoculated into a 96-well plate and incubated overnight at 37° C. in a humidified atmosphere containing 5% CO2. Complexes were solubilised in DMSO as above, and then diluted in complete cell culture medium to give a broad range of concentrations. Cisplatin was included in the screen as a comparator. Medium was removed from each well and replaced with complex or control solutions, and the plates then incubated for a further 96 hours. After 96 h culture medium was removed and 200 μL of 0.5 mg mL^−1 MTT solution (Sigma) in complete medium added to each well. Following further 4 h incubation, the solution was removed from each well and 150 μL of DMSO (Sigma) added to solubilise the formazan crystals resulting from MTT conversion. Absorbance values for the resulting solutions were read at 550 nm on a microplate reader and cell survival calculated as the absorbance of treated cells divided by the control. Results were expressed in terms of IC50 values (i.e. concentration of compound required to kill 50% of cells) and all experiments were performed in triplicate.
(§2) The following human cancer cell lines were cultured in RPMI 1640 cell culture medium supplemented with 1 mM sodium pyruvate, 2 mM L-glutamine and 10% fetal bovine serum (all from Sigma): A549 non-small cell lung, HCT-116 colon, MCF-7 breast, PC-3 prostate (all from LGC Promochem, Teddington, UK), A2780/cis ovarian (cisplatin-resistant) and RT-112 bladder (both from ECACC, Salisbury, UK).

[2] = tested on: A549 non-small cell lung; test: MTT growth inhibition assay, A549; format: cell-based, human; conditions: 96 h
Method: as §1, §2

[3] = tested on: MCF-7 breast; test: MTT growth inhibition assay, MCF-7; format: cell-based, human; conditions: 96 h
Method: as §1, §2

[4] = tested on: PC-3 prostate; test: MTT growth inhibition assay, PC-3; format: cell-based, human; conditions: 96 h
Method: as §1, §2

[5] = tested on: human tumor 60-cell line panel; test: NCI/DTP human tumor 60-cell line panel screen; format: cell-based; conditions: NCI 60-cell line panel, MG-MID, 48 h
Method: The cells were treated for 48 h at five concentrations ranging from 0.01 to 100 μM. Three endpoints were calculated: GI 50 (the concentration inhibits cell growth by 50%):
TGI (the concentration inhibits cell growth by 100%)
LC 50 (the concentration kills original cells by 50%)
MG-MID (full-panel mean-graph midpoint).

[6] = tested on: colon cancer OoLO 205; test: NCI 60-cell line screen, colon cancer line; format: cell-based, human; conditions: colon cancer OoLO 205, 48 h
Method: The cells were treated for 48 h at five concentrations ranging from 0.01 to 100 μM. Three endpoints were calculated: GI 50 (the concentration inhibits cell growth by 50%): […]

[7] = tested on: tubulin; test: Tubulin polymerization assay; format: biochemical; conditions: Osmium Compounds at 10 μM; 37° C., 60 min
Method: To follow the anticancer mechanism indicated by COMPARE, We have investigated whether osmium complexes can interacted directly with tubulin.
A Cytoskeleton tubulin polymerization assay kit (catalog no BK004) was used in the tubulin polymerization study. Briefly, 10 μL of general tubulin buffer (80 mM PIPES, pH 6.9, 2 mM MgCl2, and 0.5 mM EGTA) containing osmium compound, colchicine or taxol was pipetted into the prewarmed 96 well microplate. Tubulin (defrosted to room temperature from −80° C. and then placed on ice before use) was diluted with tubulin polymerization buffer with 1 mM GTP to a final concentration of 4 mg mL^−1. Diluted tubulin (100 μL) was added into the wells containing osmium compound, colchicine or taxol. Diluted tubulin (100 μL) mixed with general tubulin buffer (10 μL) served as control. The absorbance at 340 nm was read immediately with a Tecan microplate reader.

## [(η^6-p-cym)Os(Azpy-NMe2)I]PF6 [Complex 6]
[1]
  IC50: < 300 nM
[2]
  IC50: < 300 nM
[3]
  IC50: 79 nM
[4]
  IC50: 600 nM
[5]
  GI50: 280 nM
  LC50: 6300 nM
  TGI: 1170 nM
[6]
  GI50: < 50 nM
[7]
  Inhibition of Tubulin Polimerziation: 28.6%
